Tested on: M. tuberculosis LP-FQ-RM9
Type: cell-based, Mycobacterium tuberculosis
Conditions: for IC90: read-out: Antituberculosis activity M. tuberculosis LP-FQ-RM9 IC90; for IC50: read-out: Antituberculosis activity M. tuberculosis LP-FQ-RM9 IC50

Compound | IC90 [nM] | IC50 [nM] | activity against the fluoroquinolone-resistant strain (result in words)
COc1ccc2nccc(CCN3CCC(NCc4cc(F)c(Br)c(F)c4)CC3)c2n1 [Compound 4] | 260 |  | 
COc1ccc2nccc(CCN3CCC(NCc4ccc(Br)c(F)c4)CC3)c2n1 [Compound 1] | 520 ± 145 | 380 ± 50 | 
COc1ccc2nccc(C(O)CC3CCC(NCc4cc(F)c(Br)c(F)c4)CC3)c2n1 (centres unmarked) [Compound 5] | 1000 ± 75 |  | 
C[C@H]1COc2c(N3CCN(C)CC3)c(F)cc3c(=O)c(C(=O)O)cn1c23 [Levofloxacin, reference compound] | > 10000 | > 10000 | no activity was observed
COc1ccc2nccc(CCN3CCC(NCc4ccc(I)c(F)c4)CC3)c2n1 [Compound 2] | 580 ± 180 | 420 ± 80 | 
COc1ccc2nccc(CCN3CCC(NCc4cc(F)c(Cl)c(F)c4)CC3)c2n1 [Compound 3] | 430 | 290 | 

Source: publication PMC11647683, “Structural Aspects of Mycobacterium tuberculosis DNA Gyrase Targeted by Novel Bacterial Topoisomerase Inhibitors” (ACS Medicinal Chemistry Letters, 2024)
